Assays:
Assay in all cases: TGFα-shedding assay-based GPCR screening with chimeric Gα subunit proteins
Assay type in all cases: cell-based
348 GPCRs [1] = target: T1, 348 GPCRs (Homo sapiens, UniProt P49190); conditions: PTH2R (parathyroid hormone 2 receptor); 10µM, Favipiravir 100μM; read-out: % GPCR activation compared to TPA
T1 construct: expressed in transfected cells; host or cells: HEK293A

348 GPCRs [2] = target: T2, 348 GPCRs (Homo sapiens, UniProt Q9P1P5); conditions: TAAR2 (trace amine associated receptor 2); 10µM, Favipiravir 100μM; read-out: % GPCR activation compared to TPA
T2 construct: expressed in transfected cells; host or cells: HEK293A
T2 sequence (Q9P1P5 1-351): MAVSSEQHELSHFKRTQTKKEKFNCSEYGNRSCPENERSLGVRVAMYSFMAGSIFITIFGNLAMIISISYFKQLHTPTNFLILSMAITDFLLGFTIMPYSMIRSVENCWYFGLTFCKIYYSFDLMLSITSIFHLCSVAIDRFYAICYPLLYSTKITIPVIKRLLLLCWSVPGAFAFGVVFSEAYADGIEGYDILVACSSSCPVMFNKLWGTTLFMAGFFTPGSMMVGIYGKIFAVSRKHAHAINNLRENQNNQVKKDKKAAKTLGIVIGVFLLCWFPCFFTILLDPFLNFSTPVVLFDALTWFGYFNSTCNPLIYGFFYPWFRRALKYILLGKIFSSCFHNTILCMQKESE

348 GPCRs [3] = target: 348 GPCRs (Homo sapiens, UniProt P21728); conditions: D1 (dopamine receptor D1); 10µM, Favipiravir 100μM; read-out: % GPCR activation compared to TPA
348 GPCRs [4] = target: T3, 348 GPCRs (Homo sapiens, UniProt P48039); conditions: MT1R (melatonin receptor type 1A); 10µM, Favipiravir 100μM; read-out: % GPCR activation compared to TPA
T3 construct: expressed in transfected cells; host or cells: HEK293A

348 GPCRs [5] = target: T4, 348 GPCRs (Homo sapiens, UniProt P35414); conditions: APLNR (apelin receptor); 10µM, Favipiravir 100μM; read-out: % GPCR activation compared to TPA
T4 sequence (P35414 1-380): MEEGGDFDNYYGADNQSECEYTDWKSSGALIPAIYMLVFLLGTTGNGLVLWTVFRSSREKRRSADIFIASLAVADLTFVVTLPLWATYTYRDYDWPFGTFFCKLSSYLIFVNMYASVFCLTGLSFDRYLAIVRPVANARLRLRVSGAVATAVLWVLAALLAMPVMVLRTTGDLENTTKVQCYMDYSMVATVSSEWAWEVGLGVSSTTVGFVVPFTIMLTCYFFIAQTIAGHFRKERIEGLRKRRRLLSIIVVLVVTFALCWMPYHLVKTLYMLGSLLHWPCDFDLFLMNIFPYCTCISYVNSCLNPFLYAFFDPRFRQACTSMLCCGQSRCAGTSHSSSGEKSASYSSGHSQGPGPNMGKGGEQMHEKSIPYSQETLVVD

348 GPCRs [6] = target: T5, 348 GPCRs (Homo sapiens, UniProt Q96LB0); conditions: MRGPRX3 (MAS-related GPR, member X3); 10µM, Favipiravir 100μM; read-out: % GPCR activation compared to TPA
T5 construct: expressed in transfected cells; host or cells: HEK293A

348 GPCRs [7] = target: 348 GPCRs (Homo sapiens, UniProt P30989); conditions: NTSR1(CO) (neurotensin receptor 1); 10µM, Favipiravir 100μM; read-out: % GPCR activation compared to TPA
348 GPCRs [8] = target: 348 GPCRs (Homo sapiens, UniProt P41145); conditions: read-out: % GPCR activation compared to TPA, OPRK1 (opioid receptor, kappa 1 (KOR)); 10µM, Favipiravir 100μM
348 GPCRs [9] = target: T6, 348 GPCRs (Homo sapiens, UniProt Q01718); conditions: GPCR MC2R (melanocortin 2 receptor), read-out: % GPCR activation compared to TPA
T6 construct: expressed in transfected cells; host or cells: HEK293A

348 GPCRs [10] = target: T7, 348 GPCRs (Homo sapiens, UniProt Q7Z601); conditions: GPR142 (G protein-coupled receptor 142); 10µM, Favipiravir 100μM; read-out: % GPCR activation compared to TPA
T7 construct: expressed in transfected cells; host or cells: HEK293A
T7 sequence (Q7Z601 1-462): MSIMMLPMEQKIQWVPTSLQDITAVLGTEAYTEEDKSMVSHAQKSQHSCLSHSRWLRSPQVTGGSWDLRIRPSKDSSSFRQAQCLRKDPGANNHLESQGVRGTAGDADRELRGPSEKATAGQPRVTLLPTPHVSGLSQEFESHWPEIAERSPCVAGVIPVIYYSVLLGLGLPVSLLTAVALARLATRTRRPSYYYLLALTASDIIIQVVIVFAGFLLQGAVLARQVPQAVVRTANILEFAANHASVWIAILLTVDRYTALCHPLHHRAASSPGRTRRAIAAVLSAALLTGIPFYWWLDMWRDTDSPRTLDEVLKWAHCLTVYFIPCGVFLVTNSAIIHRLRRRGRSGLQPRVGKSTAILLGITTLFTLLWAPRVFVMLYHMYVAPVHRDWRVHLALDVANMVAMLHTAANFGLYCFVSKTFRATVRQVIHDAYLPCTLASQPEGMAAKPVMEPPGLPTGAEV

348 GPCRs [11] = target: 348 GPCRs (Homo sapiens, UniProt P35346); conditions: SSTR5 (somatostatin receptor 5); 10µM, Favipiravir 100μM; read-out: % GPCR activation compared to TPA
348 GPCRs [12] = target: T8, 348 GPCRs (Homo sapiens, UniProt Q96LB2); conditions: MRGPRX1 (MAS-related GPR, member X1); 10µM, Favipiravir 100μM; read-out: % GPCR activation compared to TPA
T8 construct: expressed in transfected cells; host or cells: HEK293A

348 GPCRs [13] = target: T9, 348 GPCRs (Homo sapiens, UniProt P49683); conditions: PRLHR (prolactin releasing hormone receptor); 10µM, Favipiravir 100μM; read-out: % GPCR activation compared to TPA
T9 construct: expressed in transfected cells; host or cells: HEK293A
T9 sequence (P49683 1-370): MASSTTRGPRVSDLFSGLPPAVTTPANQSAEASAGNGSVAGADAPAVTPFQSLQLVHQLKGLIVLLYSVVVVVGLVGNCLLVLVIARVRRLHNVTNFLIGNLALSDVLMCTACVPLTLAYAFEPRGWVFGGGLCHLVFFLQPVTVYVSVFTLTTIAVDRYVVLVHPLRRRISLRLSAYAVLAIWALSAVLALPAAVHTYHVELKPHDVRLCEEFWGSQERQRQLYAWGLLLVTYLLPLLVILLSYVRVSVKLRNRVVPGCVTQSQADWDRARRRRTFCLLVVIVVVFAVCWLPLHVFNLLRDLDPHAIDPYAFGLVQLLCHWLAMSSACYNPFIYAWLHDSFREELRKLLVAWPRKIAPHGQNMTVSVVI

348 GPCRs (Homo sapiens, UniProt P30989), sequence (P30989 whole entry): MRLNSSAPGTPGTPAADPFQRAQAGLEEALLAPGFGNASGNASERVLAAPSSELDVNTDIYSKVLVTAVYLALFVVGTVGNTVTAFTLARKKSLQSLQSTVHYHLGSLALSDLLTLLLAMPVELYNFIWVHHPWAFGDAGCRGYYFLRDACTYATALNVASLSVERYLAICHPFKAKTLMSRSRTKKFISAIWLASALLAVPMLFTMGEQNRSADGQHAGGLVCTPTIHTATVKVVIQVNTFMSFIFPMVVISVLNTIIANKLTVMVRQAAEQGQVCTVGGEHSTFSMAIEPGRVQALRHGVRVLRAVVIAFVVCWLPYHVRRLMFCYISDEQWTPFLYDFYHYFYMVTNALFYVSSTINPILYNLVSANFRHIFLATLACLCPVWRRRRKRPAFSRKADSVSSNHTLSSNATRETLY
348 GPCRs (Homo sapiens, UniProt P21728), sequence (P21728 whole entry): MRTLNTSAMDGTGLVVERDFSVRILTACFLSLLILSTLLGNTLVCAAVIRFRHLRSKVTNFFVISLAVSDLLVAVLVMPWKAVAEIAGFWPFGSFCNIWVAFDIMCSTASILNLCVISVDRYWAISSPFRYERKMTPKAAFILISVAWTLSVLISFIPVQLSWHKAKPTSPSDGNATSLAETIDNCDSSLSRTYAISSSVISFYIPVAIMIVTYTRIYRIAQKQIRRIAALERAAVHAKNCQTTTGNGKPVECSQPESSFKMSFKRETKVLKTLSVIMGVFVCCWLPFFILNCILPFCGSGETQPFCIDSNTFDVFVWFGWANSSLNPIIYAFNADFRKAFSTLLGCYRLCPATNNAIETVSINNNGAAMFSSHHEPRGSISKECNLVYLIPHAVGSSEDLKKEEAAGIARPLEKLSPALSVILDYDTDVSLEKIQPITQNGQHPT
T1 sequence (P49190 25-550): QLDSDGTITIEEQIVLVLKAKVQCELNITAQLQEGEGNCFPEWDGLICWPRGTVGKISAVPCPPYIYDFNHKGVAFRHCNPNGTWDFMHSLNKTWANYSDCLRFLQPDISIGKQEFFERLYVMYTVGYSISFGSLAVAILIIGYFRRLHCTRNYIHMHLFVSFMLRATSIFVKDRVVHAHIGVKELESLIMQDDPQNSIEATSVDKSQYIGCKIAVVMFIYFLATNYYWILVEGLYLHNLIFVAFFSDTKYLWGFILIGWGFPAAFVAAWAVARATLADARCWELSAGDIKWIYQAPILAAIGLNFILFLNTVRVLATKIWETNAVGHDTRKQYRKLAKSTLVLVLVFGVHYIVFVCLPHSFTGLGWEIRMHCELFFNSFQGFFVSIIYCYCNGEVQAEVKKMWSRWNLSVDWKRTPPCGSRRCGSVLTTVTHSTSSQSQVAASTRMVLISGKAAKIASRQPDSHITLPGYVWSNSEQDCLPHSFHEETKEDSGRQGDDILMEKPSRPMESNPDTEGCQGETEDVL
T8 sequence (Q96LB2 whole entry): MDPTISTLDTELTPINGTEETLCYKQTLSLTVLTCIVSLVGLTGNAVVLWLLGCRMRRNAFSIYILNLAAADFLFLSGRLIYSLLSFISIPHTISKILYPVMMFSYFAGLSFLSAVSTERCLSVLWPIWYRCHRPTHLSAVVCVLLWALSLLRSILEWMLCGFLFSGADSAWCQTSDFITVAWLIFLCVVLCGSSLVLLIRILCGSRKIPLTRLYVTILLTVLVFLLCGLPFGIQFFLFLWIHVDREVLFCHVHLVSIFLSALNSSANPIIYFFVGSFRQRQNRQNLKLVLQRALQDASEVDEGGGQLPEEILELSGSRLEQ
T3 sequence (P48039 whole entry): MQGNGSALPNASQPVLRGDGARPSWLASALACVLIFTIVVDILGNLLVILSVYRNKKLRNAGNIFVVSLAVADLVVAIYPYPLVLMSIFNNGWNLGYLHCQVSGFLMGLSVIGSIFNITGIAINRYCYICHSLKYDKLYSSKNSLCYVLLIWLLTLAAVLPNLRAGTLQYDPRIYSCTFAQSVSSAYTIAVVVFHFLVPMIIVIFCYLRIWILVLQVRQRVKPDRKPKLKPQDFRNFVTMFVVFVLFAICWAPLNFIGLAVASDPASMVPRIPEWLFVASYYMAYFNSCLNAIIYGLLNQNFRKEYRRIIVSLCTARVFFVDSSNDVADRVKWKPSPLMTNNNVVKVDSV
348 GPCRs (Homo sapiens, UniProt P35346), sequence (P35346 whole entry): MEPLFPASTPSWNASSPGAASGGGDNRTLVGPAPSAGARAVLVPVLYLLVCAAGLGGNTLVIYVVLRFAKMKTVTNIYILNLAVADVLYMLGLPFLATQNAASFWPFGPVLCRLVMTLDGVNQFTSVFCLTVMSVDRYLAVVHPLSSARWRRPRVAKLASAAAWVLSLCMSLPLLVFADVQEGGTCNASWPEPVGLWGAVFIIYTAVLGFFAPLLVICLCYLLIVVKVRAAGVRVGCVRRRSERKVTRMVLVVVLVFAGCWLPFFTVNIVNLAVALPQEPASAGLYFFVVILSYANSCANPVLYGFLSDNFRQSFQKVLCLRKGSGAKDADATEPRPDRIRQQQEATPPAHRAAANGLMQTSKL
348 GPCRs (Homo sapiens, UniProt P41145), sequence (P41145 whole entry): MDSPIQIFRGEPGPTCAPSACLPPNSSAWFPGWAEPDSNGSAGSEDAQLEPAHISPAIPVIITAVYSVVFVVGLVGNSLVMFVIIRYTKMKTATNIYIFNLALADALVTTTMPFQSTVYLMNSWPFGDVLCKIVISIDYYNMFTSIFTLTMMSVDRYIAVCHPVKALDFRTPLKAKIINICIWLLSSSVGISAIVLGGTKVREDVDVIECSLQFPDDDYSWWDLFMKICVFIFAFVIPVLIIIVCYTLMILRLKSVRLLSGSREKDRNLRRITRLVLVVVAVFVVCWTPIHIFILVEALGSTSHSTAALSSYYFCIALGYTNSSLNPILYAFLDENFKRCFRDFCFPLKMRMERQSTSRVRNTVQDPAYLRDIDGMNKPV
T5 sequence (Q96LB0 whole entry): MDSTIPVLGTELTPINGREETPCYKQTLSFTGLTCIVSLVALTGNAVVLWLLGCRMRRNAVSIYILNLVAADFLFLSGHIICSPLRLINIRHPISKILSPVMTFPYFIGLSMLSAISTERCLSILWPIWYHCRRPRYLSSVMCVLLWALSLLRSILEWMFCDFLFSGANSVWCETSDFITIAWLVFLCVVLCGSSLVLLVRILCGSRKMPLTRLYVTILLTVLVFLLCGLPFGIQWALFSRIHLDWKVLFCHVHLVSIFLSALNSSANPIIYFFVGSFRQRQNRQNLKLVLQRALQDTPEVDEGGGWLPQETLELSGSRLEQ
T6 sequence (Q01718 whole entry): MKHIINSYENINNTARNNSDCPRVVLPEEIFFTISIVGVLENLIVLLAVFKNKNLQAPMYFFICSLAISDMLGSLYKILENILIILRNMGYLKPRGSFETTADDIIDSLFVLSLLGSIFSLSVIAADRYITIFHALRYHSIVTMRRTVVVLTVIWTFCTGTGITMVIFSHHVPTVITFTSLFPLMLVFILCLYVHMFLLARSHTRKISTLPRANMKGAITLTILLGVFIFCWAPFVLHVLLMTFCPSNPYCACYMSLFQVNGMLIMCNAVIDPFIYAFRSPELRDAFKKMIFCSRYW

Row | activation at 100 µM (348 GPCRs [1]) [%] | activation at 100 µM (348 GPCRs [2]) [%] | activation at 10 µM (348 GPCRs [3]) [%] | activation at 10 µM (348 GPCRs [4]) [%] | activation at 10 µM (348 GPCRs [5]) [%] | activation at 100 µM (348 GPCRs [6]) [%] | activation at 100 µM (348 GPCRs [7]) [%] | activation at 100 µM (348 GPCRs [8]) [%] | activation at 10 µM (348 GPCRs [9]; 10µM) [%] | activation at 100 µM (348 GPCRs [10]) [%] | activation at 10 µM (348 GPCRs [11]) [%] | activation at 100 µM (348 GPCRs [12]) [%] | activation at 100 µM (348 GPCRs [13]) [%] | activation at 100 µM (348 GPCRs [9]; 100μM) [%] | SMILES
1 | -1.76 | -1.42 | 0.291 | 0.391 | -3.07 | -0.726 | -0.341 | -1.93 | -0.688 | 0.3 | -0.162 | -1.59 | -1.86 | – | N#C[C@@]1(c2ccc3c(N)ncnn23)O[C@H](CO)[C@@H](O)[C@H]1O [GS441524]
2 | 0.392 | 0.753 | -0.0785 | -1.27 | -2.25 | -0.33 | -1.75 | -1.65 | – | -0.257 | 2.28 | -1.16 | 1.46 | -0.849 | NC(=O)c1nc(F)cnc1O [favipiravir, 6-fluoro-3-hydroxy-2-pyrazinecarboxamide]

— article PMC10175918 (Communications Biology, 2023)
